Source: the supplement of paper PMC11451515

Columns and labels:
Conditions in all cases: 48 h
SEM cells [1] = assay: cell viability relative to DMSO control; higher = less cytotoxic
Method in brief: (§1)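 In 1536-well plates, 5 μl of leukemia cells were seeded per well: 500 cells/well for NOMO1 or SEM and 1000 cells/well for P12-Ichikawa. Each line had first been adapted for at least four passages in each medium. Library compounds in DMSO were pin-dosed at 11 threefold concentrations between 47 μM and 0.79 nM, and CellTiter-Glo One luminescence was read after 48 h at 37°C. Viability is a per-plate percentage relative to DMSO wells, with cell-free wells as background.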

NOMO1 [2] = assay: AUC of viability dose-response curve (% viability x log10 dose units); higher = less sensitive
Method in brief: (§2)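 Seeding of medium-adapted leukemia cells was at 500 or 1000 cells/well in 1536-well plates, followed by 48 h at 37°C with library compounds in DMSO at 11 threefold doses from 47 μM to 0.79 nM. CellTiter-Glo One luminescence was normalised per plate to DMSO and cell-free wells and fitted as a four-parameter log-logistic function of log10 dose. Area under the curve was integrated by trapezoidal rule, with curves exceeding full viability scaled and curves failing quality control removed.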

P12-Ichikawa [3] = assay: as above
Method in brief: as §2

SEM cells [4] = assay: as above
Method in brief: as §2

NOMO1 [5] = assay: cell viability relative to DMSO control; higher = less cytotoxic
Method in brief: as §1

P12-Ichikawa [6] = assay: as above
Method in brief: as §1

CC(C)C[C@H](NC(=O)CNC(=O)c1cc(Cl)ccc1Cl)B1OC(=O)CC(CC(=O)O)(C(=O)O)O1 (stereo partly specified)
cell viability [%], SEM cells [1]
Conditions | HPLM + 10% dialyzed FBS | RPMI 5 mM glucose + 10% FBS
0.000781 µM | 101 | 120
0.00234 µM | 120 | 132
0.00702 µM | 125 | 124
0.0211 µM | 145 | 125
0.0632 µM | 128 | 99.9
0.19 µM | 16 | 13.3
0.569 µM | 8.29 | 8.91
1.71 µM | 7.41 | 8.18
5.12 µM | 5.78 | 6.61
15.4 µM | 4.49 | 4.78
46.1 µM | 4.53 | 4.54

AUC of viability dose-response curve
Conditions | NOMO1 [2] | P12-Ichikawa [3] | SEM cells [4]
HPLM + 10% dialyzed FBS | 276 | 270 | 231
RPMI 5 mM glucose + 10% FBS | 278 | 269 | 221
RPMI 5 mM glucose + 10% dialyzed FBS | 280 | 269 | 235

CC(C)(C)c1cc(C=C(C#N)C#N)cc(Br)c1O
cell viability [%]
Conditions | NOMO1 [5] | P12-Ichikawa [6] | SEM cells [1]
HPLM + 10% dialyzed FBS, 0.000781 µM | 86 | 96.9 | 87
HPLM + 10% dialyzed FBS, 0.00234 µM | 114 | 116 | 109
HPLM + 10% dialyzed FBS, 0.00702 µM | 124 | 74.7 | 42.3
HPLM + 10% dialyzed FBS, 0.0211 µM | 112 | 114 | 114
HPLM + 10% dialyzed FBS, 0.0632 µM | 112 | 122 | 111
HPLM + 10% dialyzed FBS, 0.19 µM | 122 | 122 | 109
HPLM + 10% dialyzed FBS, 0.569 µM | 122 | 123 | 114
HPLM + 10% dialyzed FBS, 1.71 µM | 113 | 120 | 110
HPLM + 10% dialyzed FBS, 5.12 µM | 113 | 121 | 111
HPLM + 10% dialyzed FBS, 15.4 µM | 103 | 116 | 108
HPLM + 10% dialyzed FBS, 46.1 µM | 94.9 | 104 | 104
RPMI 5 mM glucose + 10% FBS, 0.000781 µM | 89.9 | 101 | 65.4
RPMI 5 mM glucose + 10% FBS, 0.00234 µM | 115 | 110 | 72.7
RPMI 5 mM glucose + 10% FBS, 0.00702 µM | 116 | 67.7 | 11.9
RPMI 5 mM glucose + 10% FBS, 0.0211 µM | 126 | 117 | 67.3
RPMI 5 mM glucose + 10% FBS, 0.0632 µM | 103 | 115 | 90.6
RPMI 5 mM glucose + 10% FBS, 0.19 µM | 106 | 123 | 81.4
RPMI 5 mM glucose + 10% FBS, 0.569 µM | 121 | 124 | 83.8
RPMI 5 mM glucose + 10% FBS, 1.71 µM | 132 | 113 | 77.4
RPMI 5 mM glucose + 10% FBS, 5.12 µM | 107 | 123 | 71.5
RPMI 5 mM glucose + 10% FBS, 15.4 µM | 109 | 121 | 77.7
RPMI 5 mM glucose + 10% FBS, 46.1 µM | 100 | 100 | 77.5
RPMI 5 mM glucose + 10% dialyzed FBS, 0.000781 µM | 84.5 | 106 | 87.3
RPMI 5 mM glucose + 10% dialyzed FBS, 0.00234 µM | 101 | 114 | 98.8
RPMI 5 mM glucose + 10% dialyzed FBS, 0.00702 µM | 105 | 79.7 | 35.7
RPMI 5 mM glucose + 10% dialyzed FBS, 0.0211 µM | 103 | 116 | 111
RPMI 5 mM glucose + 10% dialyzed FBS, 0.0632 µM | 105 | 126 | 108
RPMI 5 mM glucose + 10% dialyzed FBS, 0.19 µM | 108 | 132 | 123
RPMI 5 mM glucose + 10% dialyzed FBS, 0.569 µM | 125 | 117 | 119
RPMI 5 mM glucose + 10% dialyzed FBS, 1.71 µM | 115 | 132 | 107
RPMI 5 mM glucose + 10% dialyzed FBS, 5.12 µM | 116 | 130 | 105
RPMI 5 mM glucose + 10% dialyzed FBS, 15.4 µM | 116 | 113 | 115
RPMI 5 mM glucose + 10% dialyzed FBS, 46.1 µM | 103 | 110 | 90.7

AUC of viability dose-response curve
Conditions | HPLM + 10% dialyzed FBS | RPMI 5 mM glucose + 10% FBS | RPMI 5 mM glucose + 10% dialyzed FBS
NOMO1 [2] | 473 | 471 | 456
P12-Ichikawa [3] | 453 | 452 | 452
